ChEMBL document CHEMBL3751705, “Synthesis and antituberculosis activity of indole-pyridine derived hydrazides, hydrazide-hydrazones, and thiosemicarbazones” (Bioorg Med Chem Lett, 2016)
In brackets after ≈: the same amount, converted by molar mass. Activity calls are given as the source filed them. No cut-off for these calls is given here.

Experiments:
[1] = Cytotoxicity against C57BL/6 mouse peritoneal macrophages assessed as cell viability by lactate dehydrogenase release assay; assay type: cell-based; details: C57BL/6, Peritoneal macrophage cell
[2] = Selectivity index, ratio of IC50 for C57BL/6 mouse peritoneal macrophages to MIC for Mycobacterium tuberculosis H37Rv
[3] = tested on: Mycobacterium tuberculosis; assay: Antituberculosis activity against isoniazid-sensitive Mycobacterium tuberculosis H37Rv by microdilution method; assay type: functional

For `NNC(=O)c1cc[n+]([O-])cc1`, the IC50 [1] was 60 µg/mL (≈ 392 µM), the “Selectivity Index” value [2] was 11.5 and the MIC [3] was 5.2 µg/mL (≈ 34 µM).

`COc1ccc2[nH]c(C(=O)O)c(/C=N/NC(N)=S)c2c1` gave an MIC [3] greater than 10 µg/mL.

`CCOC(=O)c1[nH]c2ccc(C)cc2c1/C=N/NC(N)=S` gave an MIC [3] of 2 µg/mL (≈ 6.57 µM).

`CC(=O)n1cc(NNC(=O)c2ccc[n+]([O-])c2)c2ccccc21` showed an IC50 [1] of 17 µg/mL (≈ 54.8 µM) and an MIC [3] of 2 µg/mL (≈ 6.45 µM).

Work on `CC(=O)N1C/C(=N\NC(N)=S)c2ccccc21` yielded an MIC [3] greater than 10 µg/mL.

Molecule `Cc1ccc2[nH]c(C(=O)O)c(/C=N/NC(N)=S)c2c1` has an MIC [3] greater than 10 µg/mL.

In the case of `CCOC(=O)c1[nH]c2ccc(C)cc2c1CNNC(=O)c1ccncc1`, the MIC [3] is reported as 0.2 µg/mL (≈ 0.568 µM).

`CCOC(=O)c1[nH]c2ccccc2c1CNNC(=O)C1CCNCC1.CS(=O)(=O)O` showed an MIC [3] of 20 µg/mL.

Molecule `CCOC(=O)c1[nH]c2ccc(Br)cc2c1CNNC(=O)c1ccncc1` has an MIC [3] of 10 µg/mL (≈ 24 µM).

Work on `CCOC(=O)c1[nH]c2ccc(OC)cc2c1/C=N/NC(N)=S` yielded an MIC [3] greater than 10 µg/mL.

With `CCOC(=O)c1[nH]c2ccc(Cl)cc2c1CNNC(=O)c1ccncc1` the MIC [3] was 0.2 µg/mL (≈ 0.536 µM).

For `CCOC(=O)c1[nH]c2ccccc2c1CN(NC(=O)c1ccncc1)C(=O)c1ccncc1`, the MIC [3] was “inactive”.

`NC(=S)N/N=C/c1c(C(=O)O)[nH]c2ccc(Cl)cc12` showed an MIC [3] of 10 µg/mL (≈ 33.7 µM).

With `NNC(=O)c1ccncc1` [ISONIAZID] the IC50 [1] was greater than 100 µg/mL, the “Selectivity Index” value [2] was greater than 1666 and the MIC [3] was 0.06 µg/mL (≈ 0.438 µM).

With `CC(=O)n1cc(NNC(=O)c2ccncc2)c2ccccc21` the IC50 [1] was 50 µg/mL (≈ 170 µM), the “Selectivity Index” value [2] was 250 and the MIC [3] was 0.2 µg/mL (≈ 0.68 µM).

`NNC(=O)c1cccnc1` [NICOTINIC ACID HYDRAZIDE] gave an MIC [3] of 5 µg/mL (≈ 36.5 µM).

For `CC(=O)n1cc(N(NC(=O)c2ccncc2)C(=O)Nc2ccc(Cl)cc2)c2ccccc21`, the MIC [3] was “inactive”.

In the case of `CCOC(=O)c1[nH]c2ccccc2c1/C=N\NC(=O)c1cc[n+]([O-])cc1`, the IC50 [1] is reported as 18 µg/mL (≈ 51.1 µM), the “Selectivity Index” value [2] is reported as 9 and the MIC [3] is reported as 2 µg/mL (≈ 5.68 µM).

Work on `NNC(=O)c1ccc[n+]([O-])c1` yielded an MIC [3] greater than 10 µg/mL.

With `CC(=O)n1cc(NNC(=O)c2cc[n+]([O-])cc2)c2ccccc21` the MIC [3] was 2 µg/mL (≈ 6.45 µM).

With `O=C(NNCc1c[nH]c2ccccc12)c1ccncc1` the IC50 [1] was 15 µg/mL (≈ 56.3 µM), the “Selectivity Index” value [2] was 150 and the MIC [3] was 0.1 µg/mL (≈ 0.376 µM).

In the case of `CCOC(=O)c1[nH]c2ccccc2c1CN(NC(=O)c1ccncc1)C(=O)Nc1ccc(Cl)cc1`, the MIC [3] is reported as “inactive”.

In the case of `O=C(N/N=C\c1c[nH]c2ccccc12)c1ccncc1`, the IC50 [1] is reported as 40 µg/mL (≈ 151 µM), the “Selectivity Index” value [2] is reported as 400 and the MIC [3] is reported as 0.1 µg/mL (≈ 0.378 µM).

`CCOC(=O)c1[nH]c2ccccc2c1CNNC(=O)c1ccncc1` gave an MIC [3] of 0.2 µg/mL (≈ 0.591 µM).

In the case of `O=C(N/N=C\c1c[nH]c2ccccc12)c1cc[n+]([O-])cc1`, the IC50 [1] is reported as 30 µg/mL (≈ 107 µM), the “Selectivity Index” value [2] is reported as 30 and the MIC [3] is reported as 1 µg/mL (≈ 3.57 µM).

For `CCOC(=O)c1[nH]c2ccccc2c1CNNC(=O)c1cc[n+]([O-])cc1`, the IC50 [1] was 16 µg/mL (≈ 45.2 µM), the “Selectivity Index” value [2] was 8 and the MIC [3] was 2 µg/mL (≈ 5.64 µM).

In the case of `CCOC(=O)c1[nH]c2ccccc2c1/C=N\NC(=O)c1ccncc1`, the IC50 [1] is reported as 16 µg/mL (≈ 47.6 µM), the “Selectivity Index” value [2] is reported as 106.6 and the MIC [3] is reported as 0.15 µg/mL (≈ 0.446 µM).

With `CCOC(=O)c1[nH]c2ccc(C)cc2c1/C=N\NC(=O)c1ccncc1` the IC50 [1] was 15 µg/mL (≈ 42.8 µM), the “Selectivity Index” value [2] was 300 and the MIC [3] was 0.05 µg/mL (≈ 0.143 µM).

For `Cc1ccc2[nH]c(C(=O)O)c(/C=N\NC(=O)c3ccncc3)c2c1`, the IC50 [1] was 25 µg/mL (≈ 77.6 µM), the “Selectivity Index” value [2] was 250 and the MIC [3] was 0.1 µg/mL (≈ 0.31 µM).

Work on `CC(=O)n1cc(NNC(=O)c2cccnc2)c2ccccc21` yielded an MIC [3] of 20 µg/mL (≈ 68 µM).

With `NC(=S)N/N=C/c1c(C(=O)O)[nH]c2ccccc12` the MIC [3] was greater than 10 µg/mL.

In the case of `CCOC(=O)c1[nH]c2ccc(Cl)cc2c1/C=N\NC(=O)c1ccncc1`, the MIC [3] is reported as 0.1 µg/mL (≈ 0.27 µM).
